According to patent publication US20220267231A1, “FERTILIZER CONTAINING A SEED GRIND AND A METHOD OF USING THE FERTILIZER TO ENHANCE PLANT GROWTH” (Innovations for World Nutrition, LLC, priority 2020, published 2022):

Key:
Assay type in all cases: in vivo
[1] = test system: wheat; assay: Early growth of wheat in transparent cups, dry weight of seedlings; details: for Dry Weight of Roots Only / Dry Weight of Total Plant + Roots: 28 days after planting, .P buried at planting, .L buried 11 days after planting; for % Difference for Plant + Roots / % Difference for Roots Only: 28 days, compared to the baseline with the highest total weight
Method: Each cup was given 0.2 g urea in 25 mL of solution. Four wheat seeds were planted in each cup 1 inch deep and 3 inches apart. The cups holding the soil were transparent plastic and were placed inside opaque cups. The seeds were planted in the soil against the inside surface of the transparent cups and the outer opaque cups protected the roots from light during growth. By removing the inner cups, the roots were viewed and pictures taken without disturbing the plants as they were developing and therefore a view of the early growth of the roots was possible. […] After planting the seeds, the mixtures in Table 12 were buried 1.27 cm (½ inch) deep in the center of each cup. Some of these were buried on the same day as the seeds were planted (noted as .P in Table 14), and others were buried 11 days after the seed was planted (noted as .L in Table 14). If more than two seeds sprouted in a cup, the seedlings were removed to allow only two to remain. One of each formulation was tested. The baseline was tested in duplicate. Twenty-eight days after planting the wheat, the plants with roots were gently removed from the cups, rinsed, dried, and weighed.

[2] = test system: corn; assay: Early growth of corn in transparent cups, dry weight of seedlings; details: for Dry Weight of Roots / Total Dry Weight of Plant + Roots / % Difference from Baseline for Plant + Roots / % Difference from Baseline for Roots Only: corn; for Dry Weight of Roots / Total Dry Weight of Plant + Roots: 24 days after planting, .P buried at planting, .L buried 11 days after planting; for % Difference from Baseline for Plant + Roots / % Difference from Baseline for Roots Only: 24 days, compared to the baseline with the highest total weight
Method: Each cup was given 0.2 g urea in 25 mL of solution. Two corn seeds were planted in each cup 1 inch deep and 3 inches apart. The cups holding the soil were transparent plastic and were placed inside opaque cups. The seeds were planted in the soil against the inside surface of the transparent cups and the outer opaque cups protected the roots from light during growth. By removing the inner cups, the roots were viewed and pictures taken without disturbing the plants as they were developing and therefore a view of the early growth of the roots was possible. […] After planting the seeds, the mixtures in Table 12 were buried 1.27 cm (½ inch) deep in the center of each cup. Some of these were buried on the same day as the seed was planted (noted as .P in Table 13), and others were buried 11 days after the seed was planted (noted as .L in Table 13). […] If two seeds sprouted in a cup, the second was immediately removed. One cup for each formulation was tested. The baseline was tested in duplicate. Twenty-four days after planting the corn, the plants with roots were gently removed from the cups, rinsed, dried, and weighed. The % differences shown in Table 13 are compared to the baseline with the highest weight of total weight for the plant and roots.

[3] = test system: cotton; assay: Early growth of cotton in transparent cups, dry weight of plants and roots; details: cotton cup test
Method: Each cup was given 0.2 g urea in 25 mL of solution. […] The cups holding the soil were transparent plastic and were placed inside opaque cups. The seeds were planted in the soil against the inside surface of the transparent cups and the outer opaque cups protected the roots from light during growth. By removing the inner cups, the roots were viewed and pictures taken without disturbing the plants as they were developing and therefore a view of the early growth of the roots was possible. […] If two seeds sprouted in a cup, the second was immediately removed.

O=C([O-])O.[K+] [A.P, potassium bicarbonate]
Dry Weight of Roots Only [1]: 0.0669 g
Dry Weight of Total Plant + Roots [1]: 0.2337 g
Dry Weight of Roots Only ([1]; listed as A.L): 0.1166 g
Dry Weight of Total Plant + Roots ([1]; listed as A.L): 0.2670 g
% Difference for Plant + Roots [1]: −8%
% Difference for Roots Only [1]: −46%
% Difference for Plant + Roots ([1]; listed as A.L): 5%
% Difference for Roots Only ([1]; listed as A.L): −6%
Dry Weight of Roots [2]: 0.2313 g
Total Dry Weight of Plant + Roots [2]: 0.5292 g
Dry Weight of Roots ([2]; listed as A.L): 0.4121 g
Total Dry Weight of Plant + Roots ([2]; listed as A.L): 0.7818 g
% Difference from Baseline for Plant + Roots [2]: −20%
% Difference from Baseline for Roots Only [2]: −29%
% Difference from Baseline for Plant + Roots ([2]; listed as A.L): 18%
% Difference from Baseline for Roots Only ([2]; listed as A.L): 26%

O=C([O-])O.[K+] [H.P, potassium bicarbonate]
Dry Weight of Roots Only [1]: 0.1334 g
Dry Weight of Total Plant + Roots [1]: 0.3030 g
Dry Weight of Roots Only ([1]; listed as H.L): 0.1286 g
Dry Weight of Total Plant + Roots ([1]; listed as H.L): 0.2881 g
% Difference for Plant + Roots [1]: 19%
% Difference for Roots Only [1]: 7%
% Difference for Plant + Roots ([1]; listed as H.L): 13%
% Difference for Roots Only ([1]; listed as H.L): 3%
Dry Weight of Roots [2]: 0.2744 g
Total Dry Weight of Plant + Roots [2]: 0.5252 g
Dry Weight of Roots ([2]; listed as H.L): 0.2538 g
Total Dry Weight of Plant + Roots ([2]; listed as H.L): 0.5597 g
% Difference from Baseline for Plant + Roots [2]: −20%
% Difference from Baseline for Roots Only [2]: −16%
% Difference from Baseline for Plant + Roots ([2]; listed as H.L): −15%
% Difference from Baseline for Roots Only ([2]; listed as H.L): −22%

O=C([O-])O.[K+] [KBC, potassium bicarbonate]
Early growth of cotton plants and roots (in words) [3]: produced more benefit with early growth of cotton than sodium bicarbonate
Benefit to early growth of corn (in words) ([2]; corn cup test): did not provide a benefit
